Converted amounts (≈) assume the structure as drawn. Where a name gives a salt, the structure may show the parent alone. Read-outs that look alike come from different tables or passages of the source.
Key:
Experiment in all cases: Antibacterial spectrum (Minimum Inhibitory Concentration)
Type in all cases: cell-based
[1] = tested on: Klebsiella pneumoniae IFO 3512
Source text: (§1) The antibacterial tests were done according to the method authorized by the Chemotherapeutic Society of Japan.

Pr. vulgaris XK Denken = settings: Proteus vulgaris, read-out: Minimum Inhibitory Concentration
Source text: as §1

E. coli ATCC 10536 = settings: Escherichia coli
Source text: as §1

Ps. aeruginosa IFO 12689 = settings: Pseudomonas aeruginosa
Source text: as §1

[2] = tested on: Pseudomonas aeruginosa V-1
Source text: as §1

[3] = tested on: Escherichia coli NIHJ JC-2
Source text: as §1

[4] = tested on: Proteus vulgaris IFO 3167
Source text: as §1

[5] = tested on: Staphylococcus aureus 209P; settings: read-out: Minimum Inhibitory Concentration
Source text: as §1

Sta. aureus ATCC 14775 = settings: Staphylococcus aureus
Source text: as §1

Ps. aeruginosa IID 1130 = settings: Pseudomonas aeruginosa, IID1130, read-out: Minimum Inhibitory Concentration
Source text: as §1

Ps. aeruginosa IID 1210 = settings: Pseudomonas aeruginosa, IID1210, read-out: Minimum Inhibitory Concentration
Source text: as §1

[6] = tested on: Bacillus subtilis PCI 219
Source text: as §1

[7] = IFO3512, Klebsiella pneumoniae IFO 3512, Gram -, read-out: Minimum Inhibitory Concentration
[8] = ATCC10536, E. coli ATCC 10536, Gram -, read-out: Minimum Inhibitory Concentration
[9] = IFO12689, read-out: Minimum Inhibitory Concentration
[10] = V1, Pseudomonas aeruginosa V-1, Gram -, read-out: Minimum Inhibitory Concentration
[11] = NIHJJC2, Escherichia coli NIHJ JC-2, Gram -, read-out: Minimum Inhibitory Concentration
[12] = IFO3167, Proteus vulgaris IFO 3167, Gram -, read-out: Minimum Inhibitory Concentration
[13] = Klebsiella pneumoniae, IFO3512, read-out: Minimum Inhibitory Concentration
[14] = ATCC10536, read-out: Minimum Inhibitory Concentration
[15] = ATCC14775, read-out: Minimum Inhibitory Concentration
[16] = Bacillus subtilis, PCI219, read-out: Minimum Inhibitory Concentration
[17] = Pseudomonas aeruginosa, V1, read-out: Minimum Inhibitory Concentration
[18] = Escherichia coli, NIHJJC2, read-out: Minimum Inhibitory Concentration
[19] = Proteus vulgaris, IFO3167, read-out: Minimum Inhibitory Concentration
[20] = Staphylococcus aureus 209P, Gram +
[21] = IFO12689, Ps. aeruginosa IFO 12689, Gram -, read-out: Minimum Inhibitory Concentration
[22] = PCI219, Bacillus subtilis PCI 219, Gram +, read-out: Minimum Inhibitory Concentration
[23] = ATCC14775, Sta. aureus ATCC 14775, Gram +, read-out: Minimum Inhibitory Concentration

| SMILES | MIC [1, 7] [µg/mL] | MIC (Pr. vulgaris XK Denken; Pr. vulgaris XK Denken, Gram -) [µg/mL] | MIC (E. coli ATCC 10536; [8]) [µg/mL] | MIC (Ps. aeruginosa IFO 12689; [9]) [µg/mL] | MIC [2, 10] [µg/mL] | MIC [3, 11] [µg/mL] | MIC [4, 12] [µg/mL] | MIC [5, 20] [µg/mL] | MIC (Ps. aeruginosa IFO 12689; [21]) [µg/mL] | MIC [6, 22] [µg/mL] | MIC (Sta. aureus ATCC 14775; [23]) [µg/mL] | further results |
| --- | --- | --- | --- | --- | --- | --- | --- | --- | --- | --- | --- | --- |
| CCN1CCN(c2cc3c(cc2F)c(=O)c(C(=O)O)cn3CC)CC1 [Example 2, 1-ethyl-6-fluoro-7-(4-ethyl-1-piperazinyl)-4-oxo-1,4-dihydroquinoline-3-carboxylic acid] | < 0.025 | 0.2 (≈ 0.576 µM) | 0.1 (≈ 0.288 µM) | 6.25 (≈ 18 µM) | 3.13 (≈ 9.01 µM) | 0.1 (≈ 0.288 µM) | 0.2 (≈ 0.576 µM) |  |  |  |  |  |
| C=Cn1cc(C(=O)O)c(=O)c2cc(F)c(N3CCNCC3)cc21.Cl [Example 3, 1-vinyl-6-fluoro-7-(1-piperazinyl)-4-oxo-1,4-dihydro-quinoline-3-carboxylic acid hydrochloride] |  |  |  | 1.56 |  |  |  |  |  |  |  | MIC ([5]; Staphylococcus aureus, 209P): 3.13 µg/mL; MIC [1, 13]: 0.1 µg/mL; MIC (Pr. vulgaris XK Denken): 0.39 µg/mL; MIC (E. coli ATCC 10536; [14]): 0.1 µg/mL; MIC (Sta. aureus ATCC 14775; [15]): 6.25 µg/mL; MIC (Ps. aeruginosa IID 1130): 1.56 µg/mL; MIC (Ps. aeruginosa IID 1210): 1.56 µg/mL; MIC [6, 16]: 0.39 µg/mL; MIC [2, 17]: 0.39 µg/mL; MIC [3, 18]: 0.1 µg/mL; MIC [4, 19]: 0.2 µg/mL |
| CCn1cc(C(=O)O)c(=O)c2cc(Cl)c(N3CCN(C)CC3)cc21 [Example 9, 1-ethyl-6-chloro-7-(4-methyl-1-piperazinyl)-4-oxo-1,4-dihydro-quinoline-3-carboxylic acid] |  | 0.78 (≈ 2.23 µM) | 0.78 (≈ 2.23 µM) |  | 25 (≈ 71.5 µM) | 1.56 (≈ 4.46 µM) | 0.78 (≈ 2.23 µM) | 1.56 (≈ 4.46 µM) | 50 (≈ 143 µM) | 0.78 (≈ 2.23 µM) |  | MIC [1, 13]: < 0.2 µg/mL |
| CCN1CCN(c2cc3c(cc2Cl)c(=O)c(C(=O)O)cn3CC)CC1 [Example 10, 1-ethyl-6-chloro-7-(4-ethyl-1-piperazinyl)-4-oxo-1,4-dihydroquinoline-3-carboxylic acid] | < 0.2 | 1.56 (≈ 4.29 µM) | 0.78 (≈ 2.14 µM) |  | 50 (≈ 137 µM) | 1.56 (≈ 4.29 µM) | 1.56 (≈ 4.29 µM) | 0.78 (≈ 2.14 µM) | > 100 | 0.78 (≈ 2.14 µM) |  |  |
| CCn1cc(C(=O)O)c(=O)c2cc(Cl)c(N3CCN(Cc4ccccc4)CC3)cc21 [Example 11, 1-ethyl-6-chloro-7-(4-benzyl-1-piperazinyl)-4-oxo-1,4-dihydroquinoline-3-carboxylic acid] | 0.78 (≈ 1.83 µM) | 50 (≈ 117 µM) | 25 (≈ 58.7 µM) |  |  | 100 (≈ 235 µM) | 100 (≈ 235 µM) | 3.13 (≈ 7.35 µM) | > 100 | 1.56 (≈ 3.66 µM) |  | MIC [2, 17]: > 100 µg/mL |
| CCn1cc(C(=O)O)c(=O)c2cc(Cl)c(N3CCN(C(=O)C(F)(F)F)CC3)cc21 [Example 12, 1-ethyl-6-chloro-7-(4-trifluoroacetyl-1-piperazinyl)-4-oxo-1,4-dihydroquinoline-3-carboxylic acid] | 0.78 (≈ 1.81 µM) | 0.78 (≈ 1.81 µM) | 0.78 (≈ 1.81 µM) |  | 25 (≈ 57.9 µM) |  | 0.78 (≈ 1.81 µM) | 1.56 (≈ 3.61 µM) | 50 (≈ 116 µM) | 0.78 (≈ 1.81 µM) |  | MIC [3, 18]: 3.13 µg/mL (≈ 7.25 µM) |
| CCn1cc(C(=O)O)c(=O)c2cc(Cl)c(N3CCN(C4OC(=O)c5ccccc54)CC3)cc21 (centres unmarked) [Example 15, 1-ethyl-6-chloro-7-(4-phthalidyl-1-piperazinyl)-4-oxo-1,4-dihydroquinoline-3-carboxylic acid] | 0.78 (≈ 1.67 µM) | 0.39 (≈ 0.833 µM) | 0.2 (≈ 0.427 µM) |  | 6.25 (≈ 13.4 µM) | 0.2 (≈ 0.427 µM) | 0.39 (≈ 0.833 µM) | 1.56 (≈ 3.33 µM) | 12.5 (≈ 26.7 µM) | 0.78 (≈ 1.67 µM) |  |  |
| CCn1cc(C(=O)O)c(=O)c2ccc(N3CCNCC3)c(F)c21 [Example 16, 1-ethyl-7-(1-piperazinyl)-8-fluoro-4-oxo-1,4-dihydroquinoline-3-carboxylicacid hydrochloric] | 0.2 (≈ 0.626 µM) | 1.56 (≈ 4.89 µM) | 0.78 (≈ 2.44 µM) |  | 1.56 (≈ 4.89 µM) | 0.78 (≈ 2.44 µM) | 0.78 (≈ 2.44 µM) | 12.5 (≈ 39.1 µM) | 12.5 (≈ 39.1 µM) | 3.13 (≈ 9.8 µM) | 25 (≈ 78.3 µM) |  |
| CCOC(=O)c1cn(CC)c2cc(N3CCNCC3)c(F)cc2c1=O [Example 17, 1-ethyl-6-fluoro-7-(1-piperazinyl)-4-oxo-1,4-dihydroquinoline-3-carboxylicacid ethyl ester] | 6.25 (≈ 18 µM) | 25 (≈ 72 µM) | 6.25 (≈ 18 µM) |  | 50 (≈ 144 µM) | 12.5 (≈ 36 µM) | 12.5 (≈ 36 µM) | 50 (≈ 144 µM) | > 100 | 50 (≈ 144 µM) | 100 (≈ 288 µM) |  |
| Cl.Cn1cc(C(=O)O)c(=O)c2cc(F)c(N3CCNCC3)cc21 [Example 18, 1-methyl-6-fluoro-7-(1-piperazinyl)-4-oxo-1,4-dihydroquinoline-3-carboxylic acid hydrochloride] |  |  |  | 3.13 |  |  |  |  |  |  |  | MIC ([5]; Staphylococcus aureus, 209P): 6.25 µg/mL; MIC [1, 13]: 0.39 µg/mL; MIC (Pr. vulgaris XK Denken): 1.56 µg/mL; MIC (E. coli ATCC 10536; [14]): 0.39 µg/mL; MIC (Sta. aureus ATCC 14775; [15]): 12.5 µg/mL; MIC [6, 16]: 0.78 µg/mL; MIC [2, 17]: 1.56 µg/mL; MIC [3, 18]: 0.39 µg/mL; MIC [4, 19]: 0.39 µg/mL |
| CCCn1cc(C(=O)O)c(=O)c2cc(F)c(N3CCNCC3)cc21 [Example 19, 1-propyl-6-fluoro-7-(1-piperazinyl)-4-oxo-1,4-dihydroquinoline-3-carboxylic acid hydrochloride] | 0.2 | 0.39 | 0.39 |  | 3.13 | 0.2 | 0.2 | 1.56 | 12.5 | 0.39 | 3.13 |  |
| O=C(O)c1cn(Cc2ccccc2)c2cc(N3CCNCC3)c(F)cc2c1=O [Example 20, 1-benzyl-6-fluoro-1,4-dihydro-4-oxo-7-(1-piperazinyl)-quinoline-3-carboxylic acid] | 0.39 (≈ 1.02 µM) | 0.78 (≈ 2.05 µM) | 0.39 (≈ 1.02 µM) | 6.25 (≈ 16.4 µM) | 1.56 (≈ 4.09 µM) | 0.78 (≈ 2.05 µM) | 0.39 (≈ 1.02 µM) | 1.56 (≈ 4.09 µM) |  | 0.78 (≈ 2.05 µM) | 6.25 (≈ 16.4 µM) |  |
| C=CCn1cc(C(=O)O)c(=O)c2cc(F)c(N3CCNCC3)cc21 [Example 21, hydrochloride] | 0.2 | 0.39 | 0.2 | 6.25 | 1.56 | 0.2 | 0.2 | 3.13 |  | 0.78 | 6.25 |  |
| CCn1cc(C(=O)O)c(=O)c2cc(F)c(N3CCN(N=O)CC3)cc21 [Example 24, 1-ethyl-6-fluoro-7-(4-nitroso-1-piperazinyl)-4-oxo-1,4-dihydroquinoline-3-carboxylic acid] | 0.39 (≈ 1.12 µM) | 0.39 (≈ 1.12 µM) | 0.39 (≈ 1.12 µM) |  | 3.13 (≈ 8.99 µM) | 0.39 (≈ 1.12 µM) | 0.39 (≈ 1.12 µM) | 0.39 (≈ 1.12 µM) | 6.25 (≈ 17.9 µM) | 0.39 (≈ 1.12 µM) | 0.78 (≈ 2.24 µM) |  |
| Cl.O=C(O)c1cn(CCO)c2cc(N3CCNCC3)c(F)cc2c1=O [Example 25, 1-(2-hydroxyethyl)-6-fluoro-7-(1-piperazinyl)-4-oxo-1,4-dihydroquinoline-3-carboxylic acid hydrochloride] |  |  |  | > 25 |  |  |  |  |  |  |  | MIC ([5]; Staphylococcus aureus, 209P): 1.56 µg/mL; MIC [1, 13]: 0.05 µg/mL; MIC (Pr. vulgaris XK Denken): 3.13 µg/mL; MIC (E. coli ATCC 10536; [14]): 0.2 µg/mL; MIC (Sta. aureus ATCC 14775; [15]): > 25 µg/mL; MIC [6, 16]: 1.56 µg/mL; MIC [2, 17]: 3.13 µg/mL; MIC [3, 18]: 0.39 µg/mL; MIC [4, 19]: 0.2 µg/mL |
| CC(=O)N1CCN(c2cc3c(cc2F)c(=O)c(C(=O)O)cn3CCO)CC1 [Example 26, 1-(2-hydroxyethyl)-6-fluoro-7-(4-acetyl-1-piperazinyl)-4-oxo-1,4-dihydroquinoline-3-carboxylic acid] | 6.25 (≈ 16.6 µM) | > 25 | 25 (≈ 66.2 µM) |  | > 25 | > 25 | > 25 | > 25 | > 25 | 12.5 (≈ 33.1 µM) | > 25 |  |
| CCn1cc(C(=O)O)c(=O)c2cc(F)c(N3CCN(C(C)=O)CC3)cc21 [Example 29, 1-ethyl-6-fluoro-1,4-dihydro-4-oxo-7-(4-acetyl-1-piperazinyl)quinoline-3-carboxylic acid] | < 0.1 | 1.56 (≈ 4.32 µM) | 1.56 (≈ 4.32 µM) |  | 25 (≈ 69.2 µM) | 1.56 (≈ 4.32 µM) | 0.39 (≈ 1.08 µM) | 0.78 (≈ 2.16 µM) | 25 (≈ 69.2 µM) | 0.2 (≈ 0.553 µM) | 1.56 (≈ 4.32 µM) |  |
